The nature of series [1]: Stability in human plasma (residual rate by mass spectrometry). As to conditions: 20 minutes at room temperature, 0-minute sample as 100%.
Protocol: After 20 minutes, 100 μL of methanol (manufactured by Wako Pure Chemical Industries, Ltd.) was added thereto such that the reaction stopped. After being stirred, the solution was subjected to centrifugation, and the supernatant was collected and named 20-minute sample. Meanwhile, 100 μL of methanol was added to 20 μL of the human plasma, 2 μL of the aqueous solution of the cyclic peptide was then added thereto, the solution was stirred and subjected to centrifugation, and the supernatant was collected. The collected supernatant was named 0-minute sample.
By regarding the quantified value obtained from the 0-minute sample as 100%, the quantified value obtained from the 20-minute sample was calculated as a residual rate.
For series [2], the system named is human immunoglobulin G (IgG) antibodies. Kind of series: Relative binding activity to human IgG antibodies by surface plasmon resonance on immobilized sensor chip. The following applies: SPR (Biacore 3000, CM5 chip), 3,000 nM human IgG for 10 minutes at 25° C., relative to the cyclic peptide of Comparative Example 1 regarded as 1. The method, then:
A commercially available CM5 (carboxymethyl dextran introduction-type, manufactured by GE Healthcare) sensor chip was set in Biacore 3000 (Biacore is a registered trademark) as a surface plasmon resonance device manufactured by GE Healthcare, a 4-(2-hydroxyethyl)-1-piperazineethanesulfonic acid (HEPES) buffer solution (20 mM HEPES-HCl, 150 mM NaCl, pH 7.4) for surface plasmon resonance (SPR) was stabilized at a flow rate of 10 μL/min, and 70 μL of an aqueous mixed solution of 0.2 M 1-(3-Dimethylaminopropyl)-3-ethylcarbodiimide (EDC) and […] of N-Hydroxysuccinimide (NHS) were injected thereinto. Thereafter, 100 μL of a sample solution of the cyclic peptide 1, which was diluted with a HEPES buffer solution at 0.2 g/L and treated with a polytetrafluoroethylene (PTFE) filter (manufactured by Advantec MFS, Inc.) having a diameter of 0.20 μm, was supplied to the sensor chip. Then, a blocking treatment was then performed on the sample solution by using an aqueous ethanolamine solution, and the sensor chip was washed with an aqueous sodium hydroxide solution, thereby performing immobilization. Likewise, 70 μL of an aqueous mixed solution of 0.2 M EDC and 0.04 M NHS was added to the same sensor chip without immobilizing the sample in another flow channel of the sensor chip, and then the blocking treatment and the washing treatment were performed. Hereinafter, the obtained immobilized sensor chip will be referred to as “immobilized sensor chip A”.
At 25° C., 3,000 nM of human immunoglobulin G (IgG) antibodies were added for 10 minutes to the immobilized sensor chip A prepared in (2) described above. Then, the antibody binding amount in the flow channel in which the cyclic peptide was immobilized immediately after the addition and in the flow channel in which the cyclic peptide was not immobilized was measured. From the difference in the antibody binding amount between the flow channel in which the cyclic peptide was immobilized and the flow channel in which the cyclic peptide was not immobilized and the amount of the immobilized cyclic peptide, the activity of the cyclic peptide was calculated. Furthermore, by regarding the activity of a cyclic peptide 5 in Comparative Example 1 as 1, the relative binding activity with respect to the human IgG antibodies was calculated.
Background: In SPR one partner is held on a chip, and binding of the other changes the refractive index at the surface.

Series [3] is described as follows: Chemical resistance: rate of change in antibody binding amount of immobilized support before and after alkali treatment. The class given is physicochemical. The following applies: for Chemical resistance (rate of change in the binding amount): peptide-immobilized HiTrap support, human IgG binding amount at 10% leak, before and after 0.05 M aqueous NaOH for 6 hours at 25° C. The method, then:
1 mL of HiTrap NHS-activated HP Columns (coupling columns for ligand immobilization, manufactured by GE Healthcare) (HITRAP is a registered trademark) was reacted with 1 mL of 10 mg/mL cyclic peptide solution, which was prepared by dissolving the cyclic peptide 1 in an immobilization buffer (10% DMSO in 200 mM NaHCO3, 500 mM NaCl, pH 8.3), for 1 hour at 25° C. The reaction product was blocked by an aqueous ethanolamine solution and washed, thereby obtaining a cyclic peptide 1-immobilized support. Hereinafter, the obtained immobilized support will be referred to as “immobilized support A”.
The immobilized support A prepared in (4) described above was connected to a chromatography system AKTA avant 25 (manufactured by GE Healthcare) (AKTAAVANT is a registered trademark), and the antibody binding amount was measured. The columns were equilibrated using an equilibration solution (20 mM phosphoric acid buffer, 150 mM NaCl, pH 7.4), and then 20 mL of a 5 mg/mL human IgG antibody standard buffer solution (20 mM phosphoric acid buffer, 150 mM NaCl, pH 7.4) was injected thereinto at a flow rate of 0.21 mL/min. Thereafter, the columns were washed with 5 mL of a postloading wash solution (20 mM phosphoric acid buffer, 150 mM NaCl, pH 7.4) caused to flow at the same flow rate and then washed with 5 mL of a pre-elution wash solution (20 mM phosphoric acid buffer, 1 M NaCl, pH 7.4) at the same flow rate. Then, 5 mL of an elution solution (100 mM citric acid buffer, pH 3.2) was caused to flow at the same flow rate. Subsequently, 5 mL of a cleaning in place (CIP) solution (0.1 M sodium hydroxide) was caused to flow at the same flow rate, and then 5 mL of a reequilibration solution (20 mM phosphoric acid buffer, 150 mM NaCl, pH 7.4) was caused to flow at the same flow rate. At this time, by using an immunoglobulin G (IgG) elution peak obtained by monitoring absorbance at 280 nm, the amount of antibodies binding to the support until 10% of the antibody stock solution leaked out of the support was measured as the antibody binding amount. Then, the immobilized support A was filled with a 0.05 M aqueous NaOH solution for 6 hours at 25° C. and left to stand, the antibody binding amount of the support was then measured in the same manner, and a rate of change in the binding amount was calculated from the antibody binding amount before and after the alkali treatment.

Positions of bridges follow the written chain, without caps; N, C: chain ends. Non-standard residues stand in square brackets, D forms with d. Residues, ends and D or L forms follow the SMILES beside them. Triazole bridges read from a SMILES are 1,4-linked. No end group written: not given here. Lys(N3) = [N-]=[N+]=NCCCC[C@H](N)C(=O)O; Orn(N3) = [N-]=[N+]=NCCC[C@H](N)C(=O)O; Dap(N3) = [N-]=[N+]=NC[C@H](N)C(=O)O; Aha = [N-]=[N+]=NCC[C@H](N)C(=O)O; Bpg = L-bishomopropargylglycine; Hpra = C#CCC[C@H](N)C(=O)O; Pra = C#CC[C@H](N)C(=O)O

From patent US11066446B2, “Cyclic peptide, affinity chromatography support, labeled antibody, antibody drug conjugate, and pharmaceutical preparation” (FUJIFILM Corporation, priority 2016, dated 2021) come the findings set out here.

With `CC(C)C[C@@H]1NC(=O)[C@H](Cc2c[nH]cn2)NC(=O)[C@H](Cc2ccc(O)cc2)NC(=O)[C@H](C)NC(=O)[C@@H](NC(=O)[C@@H](N)CC(=O)O)CCc2cn(nn2)C[C@@H](C(=O)N[C@H](C(=O)N[C@@H](CCCCN)C(=O)N[C@@H](CCCCN)C(=O)O)[C@@H](C)O)NC(=O)[C@H](Cc2c[nH]c3ccccc23)NC(=O)[C@H](C(C)C)NC(=O)[C@H](CC(C)C)NC(=O)[C@H](CCC(=O)O)NC(=O)CNC1=O` [Cyclic peptide 4, Asp-[Hpg]-Ala-Tyr-His-Leu-Gly-Glu-Leu-Val-Trp-[Ala(N3)]-Thr-Lys-Lys] (H-D[Hpra]AYHLGELVW[Dap(N3)]TKK-OH; triazole 2-12; N-terminus and C-terminus assumed), the “Stability in plasma (residual rate)” value in series [1] is reported as “A (The rate of change in the binding amount was higher than 90%)”.

In the case of `CC(C)C[C@@H]1NC(=O)[C@H](CCC(=O)O)NC(=O)CNC(=O)[C@H](CCCNC(=N)N)NC(=O)[C@H](Cc2c[nH]cn2)NC(=O)[C@H](Cc2ccc(O)cc2)NC(=O)[C@H](C)NC(=O)[C@@H](NC(=O)[C@@H](N)CC(=O)O)CCC(=O)NCCCC[C@@H](C(=O)N[C@H](C(=O)N[C@@H](CCCCN)C(=O)N[C@@H](CCCCN)C(=O)O)[C@@H](C)O)NC(=O)[C@H](Cc2c[nH]c3ccccc23)NC(=O)[C@H](C(C)C)NC1=O` [Cyclic peptide 17, Asp-[Glu]-Ala-Tyr-His-Arg-Gly-Glu-Leu-Val-Trp-[Lys]-Thr-Lys-Lys, reference compound] (HELM PEPTIDE1{D.E.A.Y.H.R.G.E.L.V.W.K.T.K.K}$PEPTIDE1,PEPTIDE1,2:R3-12:R3$$$V2.0; N-terminus and C-terminus assumed), the “Stability in plasma (residual rate)” value in series [1] is listed as “E (The rate of change in the binding amount was equal to or lower than 50%)”.

As for “Asp-[Lys(N3)]-Ala-Tyr-His-Arg-Gly-Glu-Leu-Val-Trp-[Bpg]-Thr-Lys-Lys (D[Lys(N3)]AYHRGELVW[Bpg]TKK; triazole 2-12) [Cyclic peptide 1]”, the Relative binding activity entry in series [2] is given as “A (The relative binding activity was higher than 800% of the binding activity of the cyclic peptide 5)”. Further, the “Chemical resistance (rate of change in the binding amount)” value in series [3] is “B (The rate of change in the binding amount was higher than 80% and equal to or lower than 90%)”. The “Stability in plasma (residual rate)” value in series [1] is given as “A (The rate of change in the binding amount was higher than 90%)”.

For the compound “Asp-[Lys(N3)]-Ala-Tyr-His-Leu-Gly-Glu-Leu-Val-Trp-[Bpg]-Thr-Lys-Lys (D[Lys(N3)]AYHLGELVW[Bpg]TKK; triazole 2-12) [Cyclic peptide 2]”, the Relative binding activity result in series [2] is “A (The relative binding activity was higher than 800% of the binding activity of the cyclic peptide 5)”. In addition, the “Chemical resistance (rate of change in the binding amount)” value in series [3] is on record as “A (The rate of change in the binding amount was higher than 90%)”. Besides, in series [1], the “Stability in plasma (residual rate)” value is “A (The rate of change in the binding amount was higher than 90%)”.

Turning to “Asp-[Nva(N3)]-Ala-Tyr-His-Leu-Gly-Glu-Leu-Val-Trp-[Bpg]-Thr-Lys-Lys (D[Orn(N3)]AYHLGELVW[Bpg]TKK; triazole 2-12) [Cyclic peptide 16, [Nva(N3)] and [Bpg] cross-linked through a triazole bond]”, the Relative binding activity entry was “B (The relative binding activity was higher than 400% and equal to or lower than 800% of the binding activity of the cyclic peptide 5)” in series [2]; “C or a higher grade” in series [2] (listed as Example 16). The “Chemical resistance (rate of change in the binding amount)” value in series [3] is “A (The rate of change in the binding amount was higher than 90%)”.

Consider “Asp-[Cys]-Ala-Tyr-His-Arg-Gly-Glu-Leu-Val-Trp-[Cys]-Thr-Lys-Lys (DCAYHRGELVWCTKK; disulfide 2-12) [Cyclic peptide 19, two [Cys]'s cross-linked through a disulfide bond; comparative, reference compound]”, for which the Relative binding activity entry in series [2] is listed as “A (The relative binding activity was higher than 800% of the binding activity of the cyclic peptide 5)”. The “Chemical resistance (rate of change in the binding amount)” value in series [3] was “E (The rate of change in the binding amount was equal to or lower than 50%)”. Moreover, in series [3] (summary wording of the chemical resistance evaluation), the “chemical resistance (in words)” value is on record as “poor”.

“Asp-[Abu(N3)]-Ala-Tyr-His-Arg-Gly-Glu-Leu-Val-Trp-[Pra]-Thr-Lys-Lys (D[Aha]AYHRGELVW[Pra]TKK; triazole 2-12) [Cyclic peptide 6, [Abu(N3)] and [Pra] cross-linked through a triazole bond]”: the Relative binding activity result in series [2] was “B (The relative binding activity was higher than 400% and equal to or lower than 800% of the binding activity of the cyclic peptide 5)”. In addition, the “Chemical resistance (rate of change in the binding amount)” value in series [3] is “B (The rate of change in the binding amount was higher than 80% and equal to or lower than 90%)”.

On to “Asp-[Lys(N3)]-Ala-Tyr-His-Leu-Gly-Glu-Leu-Val-Trp-[Hpg]-Thr-Lys-Lys (D[Lys(N3)]AYHLGELVW[Hpra]TKK; triazole 2-12) [Cyclic peptide 8, [Lys(N3)] and [Hpg] cross-linked through a triazole bond]”, for which, in series [2], the Relative binding activity entry is “B (The relative binding activity was higher than 400% and equal to or lower than 800% of the binding activity of the cyclic peptide 5)”. Also, in series [3], the “Chemical resistance (rate of change in the binding amount)” value is listed as “A (The rate of change in the binding amount was higher than 90%)”.
